Patent US20250304952A1, “DNA ELEMENT RESPONSIVE TO EXTRACHROMOSOMAL DNA IN CANCER CELLS” (The Board of Trustees of the Leland Stanford Junior …, priority 2021, published 2025)

Tests used:
ecDNA hubs in COLO320-DM = assay: ecDNA clustering by interphase DNA FISH, autocorrelation g(r); type: cell-based, human; conditions: 6 hours
Source text: The Oligopaint FISH probe libraries were constructed as described previously 51 Each oligo consists of a 40 nucleotide (nt) homology to the hg19 genome assemble designed from the algorithm developed from the laboratory of Dr. Ting Wu (https://oligopaints.hms.harvard.edu/). Each library subpool consists of a unique sets of primer pairs for orthogonal PCR amplification and a 20 nt T7 promoter sequence for in vitro transcription and a 20 nt region for reverse transcription. Individual Oligopaint probes were generated by PCR amplification, in vitro transcription, and reverse transcription, in which ssDNA oligos conjugated with ATTO488 and ATTO647 fluorophores were introduced during the reverse transcription step. The Oligopaint covered genomic regions (hg19) used in this study are as follows: chr8: 116967673-118566852 (hg19_COLO_nonecDNA_1.5Mbp), chr8: 127435083-129017969 (hg19_COLO_ecDNA_1.5Mbp), chr8: 128729248-128831223 (hg19_PC3_ecDNA1_100 kb). A ssDNA oligo pool was ordered and synthesized from Twist Bioscience (San Francisco, CA). 15 mm #1.5 round glass coverslips (Electron Microscopy Sciences) were pre-rinsed with anhydrous ethanol for 5 min, air dried, and coated with L-poly lysine solution (100 μg/mL) for at least 2 hours. Fully dissociated ColoDM320 or PC3 cells were seeded onto the coverslips and recovered for at least 6 hours before experiments. Cells were fixed with 4% (v/v) methanol free paraformaldehyde diluted in 1×PBS at room temperature for 10 min. Then cells were washed 2× with 1×PBS and permeabilized in 0.5% Triton-X100 in 1×PBS for 30 min. After 2× wash in 1×PBS, cells were treated with 0.1M HCl for 5 min, followed by 3× washes with 2×SSC and 30 min incubation in 2×SSC+0.1% Tween20 (2×SSCT)+50% (v/v) formamide (EMD Millipore, cat #S4117). […]
To analyze the clustering of ecDNAs, we applied the autocorrelation function as described previously58 in Matlab (2019). g(r) estimates the probability of detecting another ecDNA signal at increasing distances from the viewpoint of an index ecDNA signal and is equal to 1 for a uniform, random distribution. Specifically, the pair auto-correlation function g(r^→) was calculated by the fast Fourier transform (FFT) method described by the equations below.
N(r^→) is the auto-correlation of a mask matrix that has the value of 1 inside the nucleus used for normalization. […] Autocorrelation functions were calculated first by converting the Cartesian coordinates to polar coordinates by Matlab cart2pol( ) function, binning by radius and by averaging within the assigned bins. […]

[1] = test system: MYC mRNA in COLO320-DM cells; assay: MYC RNA measured by RT-qPCR in COLO320-DM; type: cell-based, human; conditions: 500 nM, 6 hours
Description: Cells were then treated for 6 hours with 500 nM JQ1 in DMSO unless otherwise indicated (Sigma-Aldrich SML1524) or an equivalent volume of DMSO.
RNA was extracted using RNeasy Plus mini Kit (QIAGEN 74136). Purified RNA was quantified by Nanodrop (Thermo Fisher). For RT-qPCR, 50 ng of RNA, 1× Brilliant II qRT-PCR mastermix with 1 μL RT/RNase block (Agilent 600825), and 200 nM forward and reverse primer were used. Each Ct value was measured using Lightcycler 480 (Roche) and each mean dCt was averaged from duplicate qRT-PCR reaction and performed in biological triplicate. Relative MYC RNA level (RT-qPCR primers MYC_exon3_fw and MYC_exon3_rv) was calculated by ddCt method compared to 18S and GAPDH controls (RT-qPCR primers GAPDH_fw, GAPDH_rv, 18S_fw, 18S_rv). P values were calculated using a Student's t-test by comparing the relative fold change of biological triplicates.
Approximately 0.6×10^6 COLO320-DM or COLO-320-HSR cells were plated in 6 well plates and cultured under standard conditions for 24 hours. Cells were then treated for 6 hours with one of the following: 500 nM JQ1 (Sigma-Aldrich SML1524), 500 nM MS645 (Sigma Aldrich SML2549), 1 μM THZ-1 (Selleck chemicals S7549), 20 μM SGC-SCP30 (Selleck chemicals S7256), 10 μM OICR-9429 (Selleck chemicals S7833), 50 μM MI-3 (Selleck chemicals S7619), 2 μM trichostatin A (Selleck chemicals S1045), or DMSO. […]

OCCCCCCO [1,6-hexanediol]
ecDNA hub clustering (interphase DNA FISH, autocorrelation g(r)) (ecDNA hubs in COLO320-DM; 1% 1,6-hexanediol): did not affect ecDNA hubs

alpha-amanitin
ecDNA hub clustering (interphase DNA FISH, autocorrelation g(r)) (ecDNA hubs in COLO320-DM; 100 μg/mL alpha-amanitin): did not affect ecDNA hubs

Cc1sc2c(c1C)C(c1ccc(Cl)cc1)=N[C@@H](CC(=O)NCCCCCCCCCCNC(=O)C[C@@H]1N=C(c3ccc(Cl)cc3)c3c(sc(C)c3C)-n3c(C)nnc31)c1nnc(C)n1-2 [MS645]
ecDNA hub clustering (interphase DNA FISH, autocorrelation g(r)) (ecDNA hubs in COLO320-DM; 500 nM): reduced ecDNA transcription and clustering similar to JQ1
MYC mRNA level [1]: reduced ecDNA transcription and clustering similar to JQ1
